{
  "source": "patent US20090042835A1",
  "about": "“COMPOSITIONS AND METHODS FOR AMELIORATING HYPERLIPIDEMIA” (priority 2006, published 2009)",
  "key": {"[1]": {"target": "T1, L-FABP (Homo sapiens, UniProt P07148)", "T1 sequence (P07148 1-127)": "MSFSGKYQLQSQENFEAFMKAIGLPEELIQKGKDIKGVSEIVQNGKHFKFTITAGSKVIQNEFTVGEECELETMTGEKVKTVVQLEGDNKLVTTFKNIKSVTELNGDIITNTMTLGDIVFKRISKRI", "details": "cited from earlier work"}, "[2]": {"target": "T1, L-FABP", "test": "1,8-ANS binding to FABP (direct binding isotherms)", "from_the_text": "The pharmaceutical compound may be formulated using any small molecule that is capable of inhibiting L-FABP and which is pharmaceutically acceptable. One non-limiting example of a suitable L-FABP inhibitor is 3-(decyldimethylsilyl)-N-[2-(4-methylphenyl)-1-phenylethyl]propanamide (Sandoz compound 58-035) (lot #fr. 09061988), In some embodiments, such L-FABP inhibitors are identified using a screening assay. […] Suitable in vitro assays for testing L-FABP include, but are not limited to a high throughput L-FABP assay based on the 1,8-ANS binding assay (see: Kane, C. D., and Bernlohr, D. A. 1996, A simple assay for intracellular lipid-binding proteins using displacement of 1-anilinonaphthalene 8-sulfonic acid. Anal Biochem 233:197-204.) In this assay, recombinant L-FABP is incubated with a fluorescent surrogate ligand, 1-anilinonapthalene 8-sulfonic acid (ANS) and allowed to come to equilibrium. 1,8-ANS is non-fluorescent in solution but is highly fluorescent when bound in the hydrophobic, lipid-binding pocket of the fatty acid binding proteins. […] Chemical compounds in pools of 5 were added to each well and the fluorescence re-measured. […] In tertiary screens, the primary targets will be titrated into the FABP bound with 1,8-ANS and the displacement quantitated as a function of ligand concentration."}, "[3]": {"tested_on": "control mice", "test": "PPARα agonist GW-7647 feeding, hepatic mRNA, control mice", "type": "in vivo", "details": "2.5 mg/kg/d in chow, 7 weeks", "procedure": "(§1) Animal Studies. Male PPARα−/− mice and age matched WT littermates (on SV/129 background) were fed a standard chow diet, supplemented with either the PPARα agonist GW-7647 (2.5 mg/kg/d) or equivalent amount of solvent vehicle (DMSO), for 7 weeks. All animals had ad libitum access to water. Mice were weighed every 2 weeks and drug intake was adjusted according to mean weight. Upon end of treatment animals were sacrificed, liver was isolated, and total RNA was extracted using Versagene RNA Tissue Kit (Gentra Systems, Inc.). First-Strand cDNA synthesis and Real Time PCR expression analyses were performed as described above."}, "[4]": {"tested_on": "PPARα−/− mice", "test": "PPARα agonist GW-7647 feeding, hepatic mRNA, PPARα−/− mice", "type": "in vivo", "details": "2.5 mg/kg/d in chow, 7 weeks", "procedure": "as §1"}, "[5]": {"target": "T2, PPARα (rat, UniProt P37230 1-468)", "T2 construct": "Nuclear receptor; It was present in a crude nuclear extract, not purified; also called PPAR alpha", "T2 sequence (looked up)": "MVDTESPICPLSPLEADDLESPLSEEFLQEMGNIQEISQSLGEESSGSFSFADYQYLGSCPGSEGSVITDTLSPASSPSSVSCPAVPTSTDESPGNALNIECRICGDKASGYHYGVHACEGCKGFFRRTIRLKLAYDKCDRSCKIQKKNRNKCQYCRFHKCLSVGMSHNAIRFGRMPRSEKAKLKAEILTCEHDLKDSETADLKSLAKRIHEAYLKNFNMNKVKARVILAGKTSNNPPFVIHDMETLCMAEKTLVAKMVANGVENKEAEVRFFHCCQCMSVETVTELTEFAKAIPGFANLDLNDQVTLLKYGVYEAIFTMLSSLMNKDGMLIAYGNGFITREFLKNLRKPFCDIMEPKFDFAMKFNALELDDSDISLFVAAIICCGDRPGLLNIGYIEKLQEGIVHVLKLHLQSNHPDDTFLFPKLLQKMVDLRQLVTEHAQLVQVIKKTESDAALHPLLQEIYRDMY", "test": "inferred from EMSA supershift of the same FAO-specific DNA-protein complex with anti-RXRα and anti-PPARα antibodies", "procedure": "The probes were prepared by annealing the complementary oligonucleotides and by end labeling with [γ-³²P]ATP ([…]), PerkinElmer Life Sciences) using T4 polynucleotide kinase (New England Biolabs), followed by purification on a G50 column. For binding reactions, 15 μg of nuclear extracts were incubated with 3×10^4 cpm probe on ice for 20 min in a total volume of 15 μl of solution (20 mM HEPES, pH7.9 at 4° C., 10% glycerol, 100 mM KCl, 1 mM EDTA, and 2 μg poly(dI-dC). For supershift experiments, 1 μl of specific antibodies were added to preincubated DNA-protein complexes for an additional 20 min on ice. Antibodies against COUP-TFII (sc-6576X), RXRα (sc-553X), and PPARα (sc-9000X) were obtained from Santa Cruz Biotechnology, Inc. DNA-protein complexes were resolved on 4% native polyacrylamide gel electrophoresis containing 0.5×TBE buffer.\nPPARα-RXRα heterodimers compete with COUP-TFII for binding to the DR1 promoter elements of both the MTP and L-FABP genes. […] In contrast, PPARα-RXRα supershifts were not detected with the nuclear extracts obtained from L35 cells ((4)). These Findings indicate that in FAO cells, the DR1 sites of both the L-FABP and MTP promoters are occupied by PPARα-RXRα heterodimers while these same sites are occupied by a COUP-TFII complex in L35 cells."}},
  "data": [
    {"molecule": "CCCCCCCCCC[Si](C)(C)CCC(=O)NC(Cc1ccc(C)cc1)c1ccccc1", "note": "(stereo not shown) [Sandoz compound 58-035, 3-(decyldimethylsilyl)-N-[2-(4-methylphenyl)-1-phenylethyl]propanamide]", "values": [
      {"measurement": "inhibition of L-FABP", "setting": "[1]", "result": "inhibit L-FABP"}
    ]},
    {"molecule": "O=S(=O)(O)c1cccc2cccc(Nc3ccccc3)c12", "note": "[1,8-ANS, 1-anilinonapthalene 8-sulfonic acid]", "values": [
      {"measurement": "Kd", "setting": "[2]", "result": 1.5, "unit": "µM"}
    ]},
    {"molecule": "CC(C)(Sc1ccc(CCN(CCCCC2CCCCC2)C(=O)NC2CCCCC2)cc1)C(=O)O", "note": "[GW-7647]", "values": [
      {"measurement": "hepatic L-FABP mRNA level", "setting": "[3]", "result": "increased levels"},
      {"measurement": "hepatic MTP mRNA level", "setting": "[3]", "result": "increased levels"},
      {"measurement": "hepatic L-FABP expression level", "setting": "[4]", "result": "no significant changes"},
      {"measurement": "hepatic MTP expression level", "setting": "[4]", "result": "no significant changes"}
    ]},
    {"molecule": "RXRα (receptor, rat, UniProt Q05343 1-467, looked up, Nuclear receptor; It was present in a crude nuclear extract, not purified; also called RXR alpha) MDTKHFLPLDFSTQVNSSSLSSPTGRGSMAAPSLHPSLGPGLGSPLGSPGQLHSPISTLSSPINGMGPPFSVISSPMGPHSMSVPTTPTLGFETGSPQLNSPMNPVSSSEDIKPPLGLNGVLKVPAHPSGNMSSFTKHICAICGDRSSGKHYGVYSCEGCKGFFKRTVRKDLTYTCRDNKDCLIDKRQRNRCQYCRYQKCLAMGMKREAVQEERQRGKDRNENEVESTSSANEDMPVEKILEAELAVEPKTETYVEANMGLNPSSPNDPVTNICQAADKQLFTLVEWAKRIPHFSELPLDDQVILLRAGWNELLIASFSHRSIAVKDGILLATGLHVHRNSAHSAGVGAIFDRVLTELVSKMRDMQMDKTELGCLRAIVLFNPDSKGLSNPAEVEALREKVYASLEAYCKHKYPEQPGRFAKLLLRLPALRSIGLKCLEHLFFFKLIGDTPIDTFLMEMLEAPHQTT", "values": [
      {"measurement": "binding result", "setting": "[5]", "result": "binds"}
    ]}
  ]
}
